Earlier results as cited in US20240247024A1, “INHIBITORS OF NICOTINAMIDE N-METHYL TRANSFERASE (NNMT)” (UNIVERSITEIT LEIDEN, priority 2021, published 2024).

Key:
[1] = cited from earlier work
[2] = cited from earlier work; remark: listed apart in the source
[3] = cited from earlier work; remark: listed apart in the source
U2OS cells = conditions: cited from earlier work
NNMT = biological target: T1, NNMT (Homo sapiens, UniProt P40261); design: The enzymatic activity assays were performed using NNMT at a final concentration of 100 nM diluted in assay buffer; conditions: background section, cited from earlier work
T1 sequence (P40261 1-264): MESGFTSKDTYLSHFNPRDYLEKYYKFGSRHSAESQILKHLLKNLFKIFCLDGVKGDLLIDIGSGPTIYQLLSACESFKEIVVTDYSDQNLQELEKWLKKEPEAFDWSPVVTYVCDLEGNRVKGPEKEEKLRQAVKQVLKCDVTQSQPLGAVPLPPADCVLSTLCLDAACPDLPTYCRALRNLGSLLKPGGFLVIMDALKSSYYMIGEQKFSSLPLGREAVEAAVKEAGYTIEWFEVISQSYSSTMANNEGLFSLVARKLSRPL

HSC-2 oral cancer cells = conditions: cited from earlier work
[4] = test system: diet-induced obese (DIO) mice; conditions: cited from earlier work
aged mouse model = conditions: cited from earlier work
[5] = rapidly degraded by SAHH to adenosine and homocysteine; cited from earlier work

NC(=O)c1cccc(C#CCN(CC[C@H](N)C(=O)O)C[C@H]2O[C@@H](n3cnc4c(N)ncnc43)[C@H](O)[C@@H]2O)c1 [LL320]
cell permeability [1]: poor cell permeability

Nc1ncnc2c1ncn2[C@@H]1O[C@H](C[C@@H](N)CC[C@H](N)C(=O)O)[C@@H](O)[C@H]1O [Sinefungin, sinefungin]
cell membrane permeability [2]: low cell membrane permeability | toxicity in animal models [3]: severe toxicity

NC(=O)c1cccc(C#C[C@@H](CC[C@H](N)C(=O)O)C[C@H]2O[C@@H](n3cnc4c(N)ncnc43)[C@H](O)[C@@H]2O)c1 [NS1]
MNA levels in cells (U2OS cells): only moderately decreased | Ki (NNMT; known bisubstrate inhibitors, read-out: Ki against NNMT): 0.5 nM

Nc1ncnc2c1ncn2[C@@H]1O[C@H](CN(CC[C@H](N)C(=O)O)Cc2ccc3ccccc3c2)[C@@H](O)[C@H]1O [GYZ191]
effect on cell viability (HSC-2 oral cancer cells): significant inhibitory effect

C[n+]1cccc2c(N)cccc21 [Compound 5-amino-1-MQ, 5-amino-1-MQ]
adipocyte size [4]: decreased | body weight and white adipose mass [4]: significantly reduced | plasma total cholesterol levels [4]: lowered | muscle regeneration (aged mouse model): accelerate muscle regeneration | IC50 (NNMT; known NNMT inhibitors, read-out: IC50 against NNMT): 1200 nM

Nc1ncnc2c1ncn2[C@@H]1O[C@H](CSCC[C@H](N)C(=O)O)[C@@H](O)[C@H]1O [SAH, S-adenosyl-1-homocysteine]
activity in cellular assays [5]: loses its activity
